# Measurements reported in ChEMBL document CHEMBL5532664, “Discovery, Optimization, and Evaluation of Potent and Selective DNA-PK Inhibitors in Combination with Chemotherapy or Radiotherapy for the Treatment of Malignancies” (J Med Chem, 2024).
# The source made the active and inactive calls. No cut-off for these calls is given here.
# How the values were obtained:
# in vivo [1] = details: Sprague-Dawley, rat, po, 5 mg/kg
# in vivo [2] = details: Sprague-Dawley, rat, po, 5 mg/kg; remark: listed apart in the source
# in vivo [3] = details: Sprague-Dawley, rat, iv, 5 mg/kg
# in vivo [4] = details: Sprague-Dawley, rat, plasma, iv, 5 mg/kg
# Description: (§1) Clearance in Sprague-Dawley rat plasma at 5 mg/kg, iv measured upto 24 hrs by LC-MS/MS analysis
# HCT-116 [5] = experiment: Inhibition of colony formation in human HCT-116 cells at […] preincubated with compound for 1 hr followed by exposure to 2 Gy gamma irradiation and measured after 7 days by crystal violet staining based chemiluminescence assay relative to control; assay type: functional; details: HCT-116, light or radiation study, dose 0.25 µM, time 169 hrs
# in vivo [6] = details: Sprague-Dawley, rat, po, 5 mg/kg; remark: listed apart in the source
# in vivo [7] = details: Sprague-Dawley, rat, po, 5 mg/kg; remark: listed apart in the source
# in vivo [8] = details: Sprague-Dawley, rat, iv, 5 mg/kg; remark: listed apart in the source
# in vivo [9] = details: Sprague-Dawley, rat, plasma, po, 5 mg/kg
# Description: Clearance in Sprague-Dawley rat plasma at 5 mg/kg, po measured upto 24 hrs by LC-MS/MS analysis
# [10] = biological target: DNA-dependent protein kinase catalytic subunit (Homo sapiens, UniProt P78527)
# Description: Inhibition of human DNA-PK incubated for 30 mins in presence of Mg/ATP by HTRF method
# in vitro = details: human, liver microsomes
# HCT-116 [11] = experiment: Inhibition of colony formation in human HCT-116 cells preincubated with compound for 1 hr followed by exposure to 2 Gy gamma irradiation and measured after 7 days by crystal violet staining based chemiluminescence assay; assay type: functional, cell-based; details: HCT-116, light or radiation study
# in vivo [12] = details: Sprague-Dawley, rat, iv, 5 mg/kg; remark: listed apart in the source
# hERG (KCNH2) = hERG (KCNH2) (Homo sapiens, UniProt Q12809); experiment: in vitro
# Description: Inhibition of human ERG at 20 uM relative to control
# NCI-H460 = experiment: Antitumor activity against human NCI-H460 cells xenografted in BALB/ c nude mouse assessed as inhibition of tumor growth at 100 mg/kg, po administered once daily with 2 Gy irradiation and measured upto 7 days by vernier caliper analysis; assay type: functional, organism-based; details: time <= 7.0 day
# A549 = experiment: Antitumor activity against human A549 cells xenografted in BALB/c nude mouse assessed as inhibition of tumor growth at 10 mg/kg, iv administered thrice measured upto 26 days by vernier caliper analysis; assay type: functional, organism-based; details: time <= 26.0 day
# [13] = rat, in vivo, iv, 5 mg/kg, 24 h
# Description: as §1
# Chain of DNA-dependent protein kinase catalytic subunit (P78527 whole entry): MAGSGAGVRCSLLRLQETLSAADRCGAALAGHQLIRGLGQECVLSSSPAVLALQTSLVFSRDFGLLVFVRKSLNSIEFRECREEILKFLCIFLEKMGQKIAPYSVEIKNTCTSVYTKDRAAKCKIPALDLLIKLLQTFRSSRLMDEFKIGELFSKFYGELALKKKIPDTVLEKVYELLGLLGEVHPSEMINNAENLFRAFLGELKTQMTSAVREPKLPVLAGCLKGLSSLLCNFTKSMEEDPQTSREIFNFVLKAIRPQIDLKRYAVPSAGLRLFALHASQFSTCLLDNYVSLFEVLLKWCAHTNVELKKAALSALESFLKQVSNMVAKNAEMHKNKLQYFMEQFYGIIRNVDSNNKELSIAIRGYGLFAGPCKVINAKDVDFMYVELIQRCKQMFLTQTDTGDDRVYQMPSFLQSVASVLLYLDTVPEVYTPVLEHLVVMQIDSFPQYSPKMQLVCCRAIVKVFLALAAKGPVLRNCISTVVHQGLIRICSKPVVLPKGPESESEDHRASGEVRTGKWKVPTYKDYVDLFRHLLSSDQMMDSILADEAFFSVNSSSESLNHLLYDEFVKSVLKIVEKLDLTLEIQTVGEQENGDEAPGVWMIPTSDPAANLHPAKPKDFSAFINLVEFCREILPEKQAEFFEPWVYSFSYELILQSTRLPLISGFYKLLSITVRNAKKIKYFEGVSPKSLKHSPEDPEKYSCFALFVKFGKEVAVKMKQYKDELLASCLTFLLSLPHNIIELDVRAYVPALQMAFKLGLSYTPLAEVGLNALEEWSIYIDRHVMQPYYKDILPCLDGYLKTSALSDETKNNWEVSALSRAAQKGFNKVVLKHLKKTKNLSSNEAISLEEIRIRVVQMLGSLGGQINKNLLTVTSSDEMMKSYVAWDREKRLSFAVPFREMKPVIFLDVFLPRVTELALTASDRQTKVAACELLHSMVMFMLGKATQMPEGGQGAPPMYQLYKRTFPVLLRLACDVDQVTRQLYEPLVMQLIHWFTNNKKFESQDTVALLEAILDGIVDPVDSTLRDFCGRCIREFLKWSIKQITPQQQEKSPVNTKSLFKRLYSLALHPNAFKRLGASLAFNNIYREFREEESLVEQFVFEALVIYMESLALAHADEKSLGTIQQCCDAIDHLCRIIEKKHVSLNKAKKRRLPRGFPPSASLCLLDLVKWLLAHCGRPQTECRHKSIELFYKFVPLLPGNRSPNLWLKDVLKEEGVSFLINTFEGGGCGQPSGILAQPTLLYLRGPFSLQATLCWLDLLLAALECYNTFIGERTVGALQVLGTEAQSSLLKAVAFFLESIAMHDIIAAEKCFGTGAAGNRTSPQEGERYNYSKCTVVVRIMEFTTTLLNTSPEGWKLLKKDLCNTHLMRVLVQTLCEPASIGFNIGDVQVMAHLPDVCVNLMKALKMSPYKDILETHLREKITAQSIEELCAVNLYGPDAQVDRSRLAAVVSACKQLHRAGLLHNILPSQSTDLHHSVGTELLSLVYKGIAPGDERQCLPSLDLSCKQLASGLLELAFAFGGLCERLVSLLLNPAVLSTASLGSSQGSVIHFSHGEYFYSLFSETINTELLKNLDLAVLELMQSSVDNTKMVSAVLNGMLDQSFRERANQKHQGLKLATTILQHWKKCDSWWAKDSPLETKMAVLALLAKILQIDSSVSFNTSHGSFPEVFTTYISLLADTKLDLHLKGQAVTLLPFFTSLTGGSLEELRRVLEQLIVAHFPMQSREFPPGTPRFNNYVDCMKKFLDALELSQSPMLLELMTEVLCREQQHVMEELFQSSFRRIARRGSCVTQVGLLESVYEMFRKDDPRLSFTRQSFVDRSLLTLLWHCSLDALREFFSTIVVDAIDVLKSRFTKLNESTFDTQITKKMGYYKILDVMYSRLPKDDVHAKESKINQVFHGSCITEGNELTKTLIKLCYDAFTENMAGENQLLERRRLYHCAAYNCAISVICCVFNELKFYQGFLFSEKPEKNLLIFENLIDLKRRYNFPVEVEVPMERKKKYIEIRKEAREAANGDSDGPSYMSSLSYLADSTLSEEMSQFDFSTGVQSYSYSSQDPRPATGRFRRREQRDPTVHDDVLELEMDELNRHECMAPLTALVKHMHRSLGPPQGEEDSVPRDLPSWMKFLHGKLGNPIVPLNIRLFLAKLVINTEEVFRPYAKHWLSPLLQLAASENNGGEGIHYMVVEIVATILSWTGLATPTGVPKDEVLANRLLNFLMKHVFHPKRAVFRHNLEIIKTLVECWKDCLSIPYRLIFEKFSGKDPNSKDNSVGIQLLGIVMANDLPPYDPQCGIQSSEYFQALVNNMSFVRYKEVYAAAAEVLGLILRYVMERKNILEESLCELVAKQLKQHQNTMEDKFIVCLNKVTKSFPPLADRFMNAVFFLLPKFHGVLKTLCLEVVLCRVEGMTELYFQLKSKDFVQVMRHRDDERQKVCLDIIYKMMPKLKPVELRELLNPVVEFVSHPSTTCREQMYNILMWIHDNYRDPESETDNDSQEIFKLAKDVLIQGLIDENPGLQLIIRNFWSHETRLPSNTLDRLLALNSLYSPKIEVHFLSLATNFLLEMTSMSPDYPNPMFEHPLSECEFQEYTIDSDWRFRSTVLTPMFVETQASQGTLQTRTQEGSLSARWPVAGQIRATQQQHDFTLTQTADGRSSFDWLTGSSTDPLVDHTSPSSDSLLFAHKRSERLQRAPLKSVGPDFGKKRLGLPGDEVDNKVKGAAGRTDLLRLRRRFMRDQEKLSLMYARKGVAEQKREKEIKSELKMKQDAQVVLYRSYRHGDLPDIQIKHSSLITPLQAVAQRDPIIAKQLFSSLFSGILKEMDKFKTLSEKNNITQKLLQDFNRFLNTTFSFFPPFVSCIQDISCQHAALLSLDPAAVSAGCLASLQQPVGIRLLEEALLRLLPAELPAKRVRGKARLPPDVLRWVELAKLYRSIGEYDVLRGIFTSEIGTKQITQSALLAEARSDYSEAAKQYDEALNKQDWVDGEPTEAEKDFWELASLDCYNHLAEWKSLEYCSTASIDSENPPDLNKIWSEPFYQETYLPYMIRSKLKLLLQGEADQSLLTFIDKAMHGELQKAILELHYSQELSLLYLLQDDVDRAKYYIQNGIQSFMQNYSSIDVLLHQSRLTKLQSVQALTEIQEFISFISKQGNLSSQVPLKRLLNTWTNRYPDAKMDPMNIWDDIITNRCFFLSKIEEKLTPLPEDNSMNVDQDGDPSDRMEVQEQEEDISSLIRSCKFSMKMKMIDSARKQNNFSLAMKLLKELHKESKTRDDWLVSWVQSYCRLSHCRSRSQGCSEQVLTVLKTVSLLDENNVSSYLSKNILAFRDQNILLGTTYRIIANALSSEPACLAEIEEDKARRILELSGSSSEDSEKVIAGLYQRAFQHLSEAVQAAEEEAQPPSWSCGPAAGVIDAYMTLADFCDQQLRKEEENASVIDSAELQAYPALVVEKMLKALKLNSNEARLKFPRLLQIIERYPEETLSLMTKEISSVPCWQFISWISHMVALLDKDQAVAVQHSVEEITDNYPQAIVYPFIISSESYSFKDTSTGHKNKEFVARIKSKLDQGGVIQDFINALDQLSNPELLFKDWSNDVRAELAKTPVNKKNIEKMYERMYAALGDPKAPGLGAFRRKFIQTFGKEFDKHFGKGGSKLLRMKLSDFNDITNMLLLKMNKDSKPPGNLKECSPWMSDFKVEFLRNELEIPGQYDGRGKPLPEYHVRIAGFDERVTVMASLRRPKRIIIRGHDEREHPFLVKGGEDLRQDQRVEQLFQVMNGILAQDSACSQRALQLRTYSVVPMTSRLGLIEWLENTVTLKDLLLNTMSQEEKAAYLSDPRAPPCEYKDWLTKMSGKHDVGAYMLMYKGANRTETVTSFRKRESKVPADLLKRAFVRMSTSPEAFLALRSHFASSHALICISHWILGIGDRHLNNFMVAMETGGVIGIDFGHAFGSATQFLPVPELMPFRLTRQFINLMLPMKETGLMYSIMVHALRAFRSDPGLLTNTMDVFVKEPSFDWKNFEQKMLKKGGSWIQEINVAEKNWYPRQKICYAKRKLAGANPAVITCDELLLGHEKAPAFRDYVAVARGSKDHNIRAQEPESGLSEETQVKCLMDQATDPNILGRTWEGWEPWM
Cmax at 24 h (in vivo [1]),bioavailability at 24 h (in vivo [2]),Cmax at 24 h (in vivo [3]),clearance at 24 h (in vivo [4]),half-life at 24 h (in vivo [6]),AUC(0-t) at 24 h (in vivo [7]),half-life at 24 h (in vivo [8]),CL/F at 24 h (in vivo [9]),IC50 [10],"half-life at 5 min, 1 µM (in vitro)",IC50 (HCT-116 [11]),AUC(0-t) at 24 h (in vivo [12]),CL [13],Compound,inhibition at […] (HCT-116 [5]),inhibition at 20 µM (hERG (KCNH2)),Activity (NCI-H460),Activity (A549)
341 ng/mL,46.6%,869 ng/mL,11 mL/min/kg,6.73 h,3450 ng·h/mL,4.73 h,22.3 mL/min/kg,1 nM,2.31 h,48 nM,7400 ng·h/mL,,COc1ccc(-c2cc(C)c(Nc3ncc4c(n3)n(C3CCOCC3)c(=O)n4C)cn2)cc1OC,99.9%,8.61%,Active,
1960 ng/mL,59.6%,1960 ng/mL,6.33 mL/min/kg,4.37 h,7860 ng·h/mL,3.34 h,10.7 mL/min/kg,3 nM,19.2 h,79.3 nM,13200 ng·h/mL,,COc1ccc(-c2cc(C)c(Nc3ncc4c(n3)n(C3CCOCC3)c(=O)n4C)cn2)cn1,96.7%,16.8%,,

# Second part, the compound before the results:
Compound,Cmax at 24 h (in vivo [1]),bioavailability at 24 h (in vivo [2]),Cmax at 24 h (in vivo [3]),clearance at 24 h (in vivo [4]),half-life at 24 h (in vivo [6]),AUC(0-t) at 24 h (in vivo [7]),half-life at 24 h (in vivo [8]),CL/F at 24 h (in vivo [9]),IC50 [10],"half-life at 5 min, 1 µM (in vitro)",IC50 (HCT-116 [11]),AUC(0-t) at 24 h (in vivo [12]),CL [13],inhibition at […] (HCT-116 [5]),inhibition at 20 µM (hERG (KCNH2)),Activity (NCI-H460),Activity (A549)
Cc1cc(-c2nc[nH]n2)ccc1Nc1ncc2c(n1)n(C1CCOCC1)c(=O)n2C,733 ng/mL,33.2%,4290 ng/mL,20.2 mL/min/kg,3.72 h,1350 ng·h/mL,11.8 h,62 mL/min/kg,0.4 nM,10.5 h,83.3 nM,4060 ng·h/mL,,96.9%,-0.02%,,
CC(=O)O[C@H]1C(=O)[C@@]2(C)[C@H]([C@H](OC(=O)c3ccccc3)[C@]3(O)C[C@H](OC(=O)[C@H](O)[C@@H](NC(=O)c4ccccc4)c4ccccc4)C(C)=C1C3(C)C)[C@]1(OC(C)=O)CO[C@@H]1C[C@@H]2O,,,,,,,,,,,,,,,,,inactive
Cc1cc(-c2ccc(C=O)o2)ncc1Nc1ncc2c(n1)n(C1CCOCC1)c(=O)n2C,2.24 ng/mL,36.2%,25.2 ng/mL,,34.4 h,7.83 ng·h/mL,9.79 h,6790 mL/min/kg,0.2 nM,0.327 h,,29.9 ng·h/mL,2420.2 mL/min/kg,98.5%,4.42%,,
Cc1cc(-c2cnn(C(F)F)c2)ncc1Nc1ncc2c(n1)n(C1CCOCC1)c(=O)n2C,760 ng/mL,84%,1890 ng/mL,16.3 mL/min/kg,5.82 h,4440 ng·h/mL,1.76 h,17.7 mL/min/kg,0.4 nM,2.78 h,68 nM,5290 ng·h/mL,,96.9%,22.7%,Active,
